For one test, the target named is T1, BRD4 long (Homo sapiens, UniProt O60885).
T1 construct: endogenous in cells; host or cells: HEK293T
Nature of the test: BRD4 (long) degradation assay, Western blotting. It counts as cell-based. Here is the method: (§1) C33A cells were purchased from American Type Culture Collection (ATCC) and were cultured in Dulbecco's Modified Eagle Medium (DMEM) containing 10% (v/v) fetal bovine serum (FBS) and maintained at 37° C. with 5% CO2. 22RV1 cells were purchased from the ATCC and were cultured in RPMI-1640 Medium containing 10% (v/v) FBS and maintained at 37° C. with 5% CO2. HEK293T cells were obtained from the UC Berkeley Cell Culture Facility and were cultured in DMEM containing 10% (v/v) FBS and maintained at 37° C. with 5% CO2. K562 cells were obtained from the UC Berkeley Cell Culture Facility and were cultured in Iscove's Modified Dulbecco's Medium (IMDM) containing 10% (v/v) FBS and maintained at 37° C. with 5% CO2. MV-4-11 cells were obtained from the ATCC and were cultured in IMDM containing 10% (v/v) FBS and maintained at 37° C. with 5% CO2. A549 cells were obtained from the ATCC and were cultured in F-12K Medium containing 10% (v/v) FBS and maintained at 37° C. with 5% CO2. Mino cells were obtained from the ATCC and were cultured in RPMI-1640 Medium containing 10% (v/v) FBS and maintained at 37° C. with 5% CO2. LNCaP cells were obtained from the ATCC and were cultured in RPMI-1640 Medium containing 10% (v/v) FBS and maintained at 37° C. with 5% CO2. Unless otherwise specified, all cell culture materials were purchased from Gibco. It is not known whether HEK293T cells are from male or female origin.
(§2) Cells were washed twice with cold PBS, scraped, and pelleted by centrifugation (700 g, 5 min, 4° C.). Pellets were resuspended in PBS, sonicated, clarified by centrifugation (12,000 g, 10 min, 4° C.), and lysate was transferred to new low-adhesion microcentrifuge tubes. Proteome concentrations were determined using BCA assay and lysate was diluted to appropriate working concentrations.
(§3) Proteins were resolved by SDS/PAGE and transferred to nitrocellulose membranes using the Trans-Blot Turbo transfer system (Bio-Rad). Membranes were blocked with 5% BSA in Tris-buffered saline containing Tween 20 (TBS-T) solution for 30 min at RT, washed in TBS-T, and probed with primary antibody diluted in recommended diluent per manufacturer overnight at 4° C. After 3 washes with TBS-T, the membranes were incubated in the dark with IR680- or IR800-conjugated secondary antibodies at 1:10,000 dilution in 5% BSA in TBS-T at RT for 1 h. After 3 additional washes with TBST, blots were visualized using an Odyssey Li-Cor fluorescent scanner. The membranes were stripped using ReBlot Plus Strong Antibody Stripping Solution (EMD Millipore) when additional primary antibody incubations were performed. Antibodies used in this study were CDK4 (Abcam ab108357), Vinculin (Abcam ab129002), GAPDH (Cell Signaling Technology 14C10), RNF126 (Santa Cruz Biotechnology sc-376005), BRD4 (Abcam ab128874), Beta Actin (Cell Signaling Technology 13E5), PDE5 (Abcam ab259945), AR-V7 (Abcam ab273500), c-Abl (Santa Cruz Biotechnology sc-23), SMARCA2 (Abcam ab240648), LRRK2 (Abcam ab133474), BTK (Cell Signaling Technology D3H5), Androgen Receptor (Abcam ab133273).

The target in another test is T2, BRD4 short (Homo sapiens, UniProt O60885).
T2 construct: endogenous in cells; host or cells: HEK293T
Briefly: BRD4 (short) degradation assay, Western blotting. It is filed as cell-based. The protocol:
as §1, §2, §3

The mark [1] stands for this setting: first value of cell (long/short).
The mark [2] stands for this setting: second value of cell (long/short).
[3] abbreviates: first value of cell, range with lower bound in nM and upper bound in μM.
Where [4] appears, read: second value of cell, range with lower bound in nM and upper bound in μM.

A value given as a limit tells only on which side of the number the result lay.

Take `COc1ccc(C(=O)/C=C/C(=O)N2CC3CCC2CN3C(=O)C[C@@H]2N=C(c3ccc(Cl)cc3)c3c(sc(C)c3C)-n3c(C)nnc32)cc1` (stereo partly drawn) [Compound 226, (E)-1-(5-(2-((S)-4-(4-chlorophenyl)-2,3,9-trimethyl-6H-thieno[3,2-f][1,2,4]triazolo[4,3-a][1,4]diazepin-6-yl)acetyl)-2,5-diazabicyclo[2.2.2]octan-2-yl)-4-(4-methoxyphenyl)but-2-ene-1,4-dione]: the DC50 on BRD4 long (setting [1]) and on BRD4 short (setting [2]) was 10 to 100 nM throughout.

On to `COc1ccc(C(=O)/C=C/C(=O)N2CC3(CCN(C(=O)C[C@@H]4N=C(c5ccc(Cl)cc5)c5c(sc(C)c5C)-n5c(C)nnc54)CC3)C2)cc1` [Compound 227, (S,E)-1-(7-(2-(4-(4-chlorophenyl)-2,3,9-trimethyl-6H-thieno[3,2-f][1,2,4]triazolo[4,3-a][1,4]diazepin-6-yl)acetyl)-2,7-diazaspiro[3.5]nonan-2-yl)-4-(4-methoxyphenyl)but-2-ene-1,4-dione], for which the 50% degradation concentration (DC50) on BRD4 long (setting [1]) and on BRD4 short (setting [2]) was 10 to 100 nM in each case.

For the compound `COc1ccc(C(=O)/C=C/C(=O)N2CC3CCC(C2)N(C(=O)C[C@@H]2N=C(c4ccc(Cl)cc4)c4c(sc(C)c4C)-n4c(C)nnc42)C3)cc1` (stereo partly drawn) [Compound 228, (E)-1-(6-(2-((S)-4-(4-chlorophenyl)-2,3,9-trimethyl-6H-thieno[3,2-f][1,2,4]triazolo[4,3-a][1,4]diazepin-6-yl)acetyl)-3,6-diazabicyclo[3.2.2]nonan-3-yl)-4-(4-methoxyphenyl)but-2-ene-1,4-dione], the 50% degradation concentration (DC50) on BRD4 long (setting [1]) and at BRD4 short (setting [2]) was 10 to 100 nM each time.

As for `COc1ccc(C(=O)/C=C/C(=O)N2CC3CC(C2)CN(C(=O)C[C@@H]2N=C(c4ccc(Cl)cc4)c4c(sc(C)c4C)-n4c(C)nnc42)C3)cc1` [Compound 229, (E)-1-(7-(2-((S)-4-(4-chlorophenyl)-2,3,9-trimethyl-6H-thieno[3,2-f][1,2,4]triazolo[4,3-a][1,4]diazepin-6-yl)acetyl)-3,7-diazabicyclo[3.3.1]nonan-3-yl)-4-(4-methoxyphenyl)but-2-ene-1,4-dione], the 50% degradation concentration (DC50) on BRD4 long (setting [3]) and at BRD4 short (setting [4]) was 100 to 1000 nM throughout.

Regarding `COc1ccc(C(=O)/C=C/C(=O)N2CC3CN(C(=O)C[C@@H]4N=C(c5ccc(Cl)cc5)c5c(sc(C)c5C)-n5c(C)nnc54)CC3C2)cc1` (stereo partly drawn) [Compound 230, (E)-1-(5-(2-((S)-4-(4-chlorophenyl)-2,3,9-trimethyl-6H-thieno[3,2-f][1,2,4]triazolo[4,3-a][1,4]diazepin-6-yl)acetyl)hexahydropyrrolo[3,4-c]pyrrol-2(1H)-yl)-4-(4-methoxyphenyl)but-2-ene-1,4-dione], the DC50 on BRD4 long (setting [1]) and at BRD4 short (setting [2]) was 10 to 100 nM in each case.

Turning to `COc1ccc(C(=O)/C=C/C(=O)N2CCC3(CC2)CN(C(=O)C[C@@H]2N=C(c4ccc(Cl)cc4)c4c(sc(C)c4C)-n4c(C)nnc42)CCO3)cc1` [Compound 231, (S,E)-1-(4-(2-(4-(4-chlorophenyl)-2,3,9-trimethyl-6H-thieno[3,2-f][1,2,4]triazolo[4,3-a][1,4]diazepin-6-yl)acetyl)-1-oxa-4,9-diazaspiro[5.5]undecan-9-yl)-4-(4-methoxyphenyl)but-2-ene-1,4-dione], the DC50 at BRD4 long (setting [1]) is 10 to 100 nM; on BRD4 short (setting [2]) it was 1 to 10 nM.

As for `COc1ccc(C(=O)/C=C\C(=O)N2CCN(C(=O)C[C@@H]3N=C(c4ccc(Cl)cc4)c4c(sc(C)c4C)-n4c(C)nnc43)CC2)cc1` [Compound 232, (S,Z)-1-(4-(2-(4-(4-chlorophenyl)-2,3,9-trimethyl-6H-thieno[3,2-f][1,2,4]triazolo[4,3-a][1,4]diazepin-6-yl)acetyl)piperazin-1-yl)-4-(4-methoxyphenyl)but-2-ene-1,4-dione], the DC50 at BRD4 long (setting [1]) and on BRD4 short (setting [2]) was 10 to 100 nM throughout.

For the compound `COc1ccc(C(=O)/C=C/C(=O)N2CCN(C(=O)C[C@@H]3N=C(c4ccc(Cl)cc4)c4c(sc(C)c4C)-n4c(C)nnc43)CC2)c(F)c1` [Compound 233, (S,E)-1-(4-(2-(4-(4-chlorophenyl)-2,3,9-trimethyl-6H-thieno[3,2-f][1,2,4]triazolo[4,3-a][1,4]diazepin-6-yl)acetyl)piperazin-1-yl)-4-(2-fluoro-4-methoxyphenyl)but-2-ene-1,4-dione], the DC50 on BRD4 long (setting [1]) and on BRD4 short (setting [2]) was < 100 nM throughout.

As to `COc1ccc(C(=O)/C=C/C(=O)N[C@H]2C[C@H](NC(=O)CC3N=C(c4ccc(Cl)cc4)c4c(sc(C)c4C)-n4c(C)nnc43)C2)c(F)c1` (stereo partly drawn) [Compound 234, (E)-N-((1S,3r)-3-(2-((S)-4-(4-chlorophenyl)-2,3,9-trimethyl-6H-thieno[3,2-f][1,2,4]triazolo[4,3-a][1,4]diazepin-6-yl)acetamido)cyclobutyl)-4-(2-fluoro-4-methoxyphenyl)-4-oxobut-2-enamide], the DC50 at BRD4 long (setting [1]) was determined as 50 nM; at BRD4 short (setting [2]), 150 nM.

For `COc1cc(F)ccc1C(=O)/C=C/C(=O)N1CCN(C(=O)C[C@@H]2N=C(c3ccc(Cl)cc3)c3c(sc(C)c3C)-n3c(C)nnc32)CC1` [Compound 235, (S,E)-1-(4-(2-(4-(4-chlorophenyl)-2,3,9-trimethyl-6H-thieno[3,2-f][1,2,4]triazolo[4,3-a][1,4]diazepin-6-yl)acetyl)piperazin-1-yl)-4-(4-fluoro-2-methoxyphenyl)but-2-ene-1,4-dione], the DC50 on BRD4 long (setting [1]) and at BRD4 short (setting [2]) was < 100 nM each time.

On to `COc1ccc(C(=O)/C=C/C(=O)N[C@H]2C[C@H](NC(=O)C[C@@H]3N=C(c4ccc(Cl)cc4)c4c(sc(C)c4C)-n4c(C)nnc43)C2)cc1F` [Compound 236, (E)-N-((1S,3r)-3-(2-((S)-4-(4-chlorophenyl)-2,3,9-trimethyl-6H-thieno[3,2-f][1,2,4]triazolo[4,3-a][1,4]diazepin-6-yl)acetamido)cyclobutyl)-4-(3-fluoro-4-methoxyphenyl)-4-oxobut-2-enamide], for which the figures for the DC50 at BRD4 long (setting [1]) and on BRD4 short (setting [2]) were 90 nM and 190 nM, respectively.

Regarding `COc1ccc(C(=O)/C=C/C(=O)N2CCN(C(=O)C[C@@H]3N=C(c4ccc(Cl)cc4)c4c(sc(C)c4C)-n4c(C)nnc43)CC2)cc1F` [Compound 237, (S,E)-1-(4-(2-(4-(4-chlorophenyl)-2,3,9-trimethyl-6H-thieno[3,2-f][1,2,4]triazolo[4,3-a][1,4]diazepin-6-yl)acetyl)piperazin-1-yl)-4-(3-fluoro-4-methoxyphenyl)but-2-ene-1,4-dione], the DC50 at BRD4 long (setting [1]) and at BRD4 short (setting [2]) was < 100 nM throughout.

Consider `Cc1sc2c(c1C)C(c1ccc(Cl)cc1)=N[C@@H](CC(=O)N1CCN(C(=O)/C=C/C(=O)c3ccc(C#N)cc3)CC1)c1nnc(C)n1-2` [Compound 238, (S,E)-4-(4-(4-(2-(4-(4-chlorophenyl)-2,3,9-trimethyl-6H-thieno[3,2-f][1,2,4]triazolo[4,3-a][1,4]diazepin-6-yl)acetyl)piperazin-1-yl)-4-oxobut-2-enoyl)benzonitrile], for which the DC50 on BRD4 long (setting [3]) is 100 to 1000 nM; at BRD4 short (setting [2]) it was < 100 nM.

Consider `Cc1sc2c(c1C)C(c1ccc(Cl)cc1)=N[C@@H](CC(=O)N1CCN(C(=O)/C=C/C(=O)c3cccc(C#N)c3)CC1)c1nnc(C)n1-2` [Compound 239, (S,E)-3-(4-(4-(2-(4-(4-chlorophenyl)-2,3,9-trimethyl-6H-thieno[3,2-f][1,2,4]triazolo[4,3-a][1,4]diazepin-6-yl)acetyl)piperazin-1-yl)-4-oxobut-2-enoyl)benzonitrile], for which the 50% degradation concentration (DC50) at BRD4 long (setting [3]) and at BRD4 short (setting [4]) was 100 to 1000 nM in each case.

With `COc1ccc(C(=O)/C=C/C(=O)N2CCN(C(=O)C[C@@H]3N=C(c4ccc(Cl)cc4)c4c(sc(C)c4C)-n4c(C)nnc43)CC2)c(Cl)c1` [Compound 240, (S,E)-1-(2-chloro-4-methoxyphenyl)-4-(4-(2-(4-(4-chlorophenyl)-2,3,9-trimethyl-6H-thieno[3,2-f][1,2,4]triazolo[4,3-a][1,4]diazepin-6-yl)acetyl)piperazin-1-yl)but-2-ene-1,4-dione], the DC50 on BRD4 long (setting [1]) was < 10 nM; at BRD4 short (setting [2]) it was 10 to 100 nM.

(Values after US20260200939A1, “MOLECULAR GLUE DEGRADER COMPOUNDS AND USES THEREOF” (Novartis AG, priority 2022, published 2026).)
